In patent US9908890B2, “Selective inhibitors of constitutive androstane receptor” (ST. JUDE CHILDREN'S RESEARCH HOSPITAL, priority 2014, dated 2018):
“And” between values parts separate entries of the source, which are not always exact repeats. Equal values may be shown once. Read-outs that look alike come from different tables or passages of the source.

Biological target: T1, GST-hCAR-LBD (Homo sapiens, UniProt Q14994)
T1 construct: purchased Life Technologies (Carlsbad, Calif.) or Invitrogen (Carlsbad, Calif.)
T1 sequence (Q14994 109-352 limits assumed): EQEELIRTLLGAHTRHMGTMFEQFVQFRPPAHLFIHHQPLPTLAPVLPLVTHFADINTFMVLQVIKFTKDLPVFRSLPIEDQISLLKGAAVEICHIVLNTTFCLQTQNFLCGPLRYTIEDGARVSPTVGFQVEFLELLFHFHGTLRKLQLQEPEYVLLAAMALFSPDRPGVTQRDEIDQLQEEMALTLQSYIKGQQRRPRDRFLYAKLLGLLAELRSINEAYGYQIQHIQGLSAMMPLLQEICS
Assay: CoAct binding inverse agonist assay (LanthaScreen TR-FRET, fluorescent PGC-1α coactivator recruitment/repression)
Format: biochemical
Conditions: for fold increase of CAR inverse agonistic activity (potency) over lead chemical 1 (CINPA1) / fold increase of IC50 (decrease of activity) relative to lead chemical 1 (CINPA1): relative to chemical 1; for inhibition at 70 µM: read-out: % Inhibition (70 μM)
Method: The effect of putative CAR ligands on the recruitment or repression of PGC-1α binding to hCAR was evaluated by using a LanthaScreen TR-FRET assay according to the manufacturer's instructions. […] The final DMSO concentration was 0.7% in all assay wells. […] The % Inhibition values were then plotted for individual chemicals. When applicable, the graphic software GraphPad Prism 5.04 (GraphPad Software, La Jolla, Calif., USA) was used to fit the data into a one-site competitive-binding equation to derive IC50 values. […] The assay plates were then briefly spun down and incubated for 1 hour at room temperature (25° C.). […] The final DMSO concentration was 0.7% in all assay wells. […] The % Inhibition values were then plotted for individual chemicals. When applicable, the graphic software GraphPad Prism 5.04 (GraphPad Software, La Jolla, Calif., USA) was used to fit the data into a one-site competitive-binding equation to derive IC50 values.

[1] = read-out: IC50 (CAR inverse agonistic activity)
[2] = 70 μM compound, 42 μM clotrimazole = 100%, DMSO = 0%

IC50 [1]	IC50 (Table 4, read-out: IC50)	Compound	other results
120 nM		CCCN(CCC)CC(=O)N1c2ccccc2CCc2ccc(NC(=O)OC(C)C)cc21 [Compound 28, isopropyl (5-(dipropylglycyl)-10,11-dihydro-5H-dibenzo[b,f]azepin-3-yl)carbamate]	
21 nM		CC(C)OC(=O)Nc1ccc2c(c1)N(C(=O)COCC(C)(C)C)c1ccccc1CC2 [Compound 32, isopropyl (5-(2-(neopentyloxy)acetyl)-10,11-dihydro-5H-dibenzo[b,f]azepin-3-yl)carbamate]	
21 nM and 22 nM		CC(C)OC(=O)Nc1ccc2c(c1)N(C(=O)Cn1cccc1)c1ccccc1CC2 [Compound 26, isopropyl (5-(2-(1H-pyrrol-1-yl)acetyl)-10,11-dihydro-5H-dibenzo[b,f]azepin-3-yl)carbamate]	fold increase of CAR inverse agonistic activity (potency) over lead chemical 1 (CINPA1): 32.8 fold
320 nM		CCOC(=O)Nc1ccc2c(c1)N(C(=O)CCN1CCOCC1)c1ccccc1CC2 [compound 85]	
150 nM	153 nM	CCCN(CCC)CC(=O)N1c2ccccc2CCc2ccc(NC(=O)OC(C)(C)C)cc21 [Compound 37, tert-butyl (5-(dipropylglycyl)-10,11-dihydro-5H-dibenzo[b,f]azepin-3-yl)carbamate]	
	19 nM	CCN(CC)C(=O)N1c2ccccc2CCc2ccc(NC(=O)OC(C)C)cc21 [Compound 54]	
20 nM		CC(C)OC(=O)Nc1ccc2c(c1)N(C(=O)COC1CCCC1)c1ccccc1CC2 [Compound 35, isopropyl (5-(2-(cyclopentyloxy)acetyl)-10,11-dihydro-5H-dibenzo[b,f]azepin-3-yl)carbamate]	
	16 nM	CC(C)OC(=O)Nc1ccc2c(c1)N(C(=O)OC1CCCC1)c1ccccc1CC2 [Compound 56]	
1030 nM		CCN(CC)CC(=O)N1c2ccccc2CCc2ccc(NC(=O)C(C)(C)C)cc21 [Compound 4, N-(5-(diethylglycyl)-10,11-dihydro-5H-dibenzo[b,f]azepin-3-yl)pivalamide]	inhibition at 70 µM [2]: 113%
120 nM		CC(C)OCC(=O)N1c2ccccc2CCc2ccc(NC(=O)OC(C)(C)C)cc21 [Compound 39, tert-butyl (5-(2-isopropoxyacetyl)-10,11-dihydro-5H-dibenzo[b,f]azepin-3-yl)carbamate]	
82 nM		CC(C)OC(=O)Nc1ccc2c(c1)N(C(=O)COC1CC1)c1ccccc1CC2 [Compound 33, isopropyl (5-(2-cyclopropoxyacetyl)-10,11-dihydro-5H-dibenzo[b,f]azepin-3-yl)carbamate]	
	25 nM	CC(C)OC(=O)Nc1ccc2c(c1)N(C(=O)OCC(C)(C)C)c1ccccc1CC2 [Compound 57]	
	370 nM	O=C(Nc1ccc2c(c1)N(C(=O)Cn1cccc1)c1ccccc1CC2)N1CCOCC1 [Compound 48]	
290 nM		COC(=O)Nc1ccc2c(c1)N(C(=O)CCN1CCOCC1)c1ccccc1CC2 [compound 87]	
	75 nM	CC(C)OC(=O)Nc1ccc2c(c1)N(C(=O)c1ccco1)c1ccccc1CC2 [Compound 65]	
14 nM		O=C(Nc1ccc2c(c1)N(C(=O)Cn1cccc1)c1ccccc1CC2)OC1CCCC1 [Compound 43, cyclopentyl (5-(2-(1H-pyrrol-1-yl)acetyl)-10,11-dihydro-5H-dibenzo[b,f]azepin-3-yl)carbamate]	
24 nM		CC(C)OC(=O)Nc1ccc2c(c1)N(C(=O)COC1CCCCC1)c1ccccc1CC2 [Compound 36, isopropyl (5-(2-(cyclohexyloxy)acetyl)-10,11-dihydro-5H-dibenzo[b,f]azepin-3-yl)carbamate]	

IC50 [1]	IC50 (Table 4, read-out: IC50)	Compound	other results
		CCOC(=O)Nc1ccc2c(c1)N(C(=O)CN1[C@H]3CC[C@@H]1CC3)c1ccccc1CC2 [Compound 20, ethyl (5-(2-((1s,4s)-7-azabicyclo[2.2.1]heptan-7-yl)acetyl)-10,11-dihydro-5H-dibenzo[b,f]azepin-3-yl)carbamate]	inhibition at 70 µM [2]: 118%
		CCNCC(=O)N1c2ccccc2CCc2ccc(N)cc21 [Compound 72]	inhibition at 70 µM [2]: 27%
	150 nM	O=C(Nc1ccc2c(c1)N(C(=O)N1CCCCC1)c1ccccc1CC2)OC1CCCCC1 [Compound 59]	
3630 nM		CCOC(=O)Nc1ccc2c(c1)N(C(=O)CNC(C)(C)C)c1ccccc1CC2 [compound 83]	fold increase of IC50 (decrease of activity) relative to lead chemical 1 (CINPA1): 5 fold
60 nM		CC(C)OCC(=O)N1c2ccccc2CCc2ccc(NC(=O)OC(C)C)cc21 [Compound 30, isopropyl (5-(2-isopropoxyacetyl)-10,11-dihydro-5H-dibenzo[b,f]azepin-3-yl)carbamate]	
1790 nM		CC(C)OC(=O)Nc1ccc2c(c1)N(C(=O)CCN(C)C)c1ccccc1CC2 [compound 89]	fold increase of potency compared to chemical 86 (relative to chemical 86): about 3 fold
2430 nM		CCOC(=O)Nc1ccc2c(c1)N(C(=O)CCN(CC)CC)c1ccccc1CC2 [Compound 22, ethyl (5-(3-(diethylamino)propanoyl)-10,11-dihydro-5H-dibenzo[b,f]azepin-3-yl)carbamate]	inhibition at 70 µM [2]: 119%; fold increase of IC50 (decrease of activity) relative to lead chemical 1 (CINPA1): 3.5 fold
		Clc1ccccc1C(c1ccccc1)(c1ccccc1)n1ccnc1 [Clotrimazole, reference compound]	inhibition at 42 µM (42 μM clotrimazole, positive control): 100%
	41 nM	CC(C)(C)COC(=O)N1c2ccccc2CCc2ccc(NC(=O)OC3CCCCC3)cc21 [Compound 61]	
22 nM		O=C(Nc1ccc2c(c1)N(C(=O)Cn1cccc1)c1ccccc1CC2)OC1CC1 [Compound 41, cyclopropyl (5-(2-(1H-pyrrol-1-yl)acetyl)-10,11-dihydro-5H-dibenzo[b,f]azepin-3-yl)carbamate]	
5010 nM		CCOC(=O)Nc1ccc2c(c1)N(C(=O)CCN(C)C)c1ccccc1CC2 [compound 86]	
20 nM		O=C(Nc1ccc2c(c1)N(C(=O)Cn1cccc1)c1ccccc1CC2)OC1CCC1 [Compound 42, cyclobutyl (5-(2-(1H-pyrrol-1-yl)acetyl)-10,11-dihydro-5H-dibenzo[b,f]azepin-3-yl)carbamate]	
	99 nM	O=C(Nc1ccc2c(c1)N(C(=O)Cn1cccc1)c1ccccc1CC2)N1CCCCC1 [Compound 47]	
	14 nM	O=C(Nc1ccc2c(c1)N(C(=O)n1cccc1)c1ccccc1CC2)OC1CCCCC1 [Compound 58]	
	37 nM	CC(C)OC(=O)Nc1ccc2c(c1)N(C(=O)Cc1ccco1)c1ccccc1CC2 [Compound 63]	
250 nM		CC(C)OC(=O)Nc1ccc2c(c1)N(C(=O)CN1CCCCC1)c1ccccc1CC2 [Compound 27, isopropyl (5-(2-(piperidin-1-yl)acetyl)-10,11-dihydro-5H-dibenzo[b,f]azepin-3-yl)carbamate]	

Compound	IC50 [1]	IC50 (Table 4, read-out: IC50)	other results
CCOC(=O)Nc1ccc2c(c1)N(C(=O)CNC(C)(C)CC)c1ccccc1CC2 [Compound 21, ethyl (5-(tert-pentylglycyl)-10,11-dihydro-5H-dibenzo[b,f]azepin-3-yl)carbamate]	2060 nM		inhibition at 70 µM [2]: 116%; fold increase of IC50 (decrease of activity) relative to lead chemical 1 (CINPA1): 3 fold
CCOC(=O)Nc1ccc2c(c1)N(C(=O)CN1C(=O)C=CC1=O)c1ccccc1CC2 [Compound 15, ethyl (5-(2-(2,5-dioxo-2,5-dihydro-1H-pyrrol-1-yl)acetyl)-10,11-dihydro-5H-dibenzo[b,f]azepin-3-yl)carbamate]	39800 nM		inhibition at 70 µM [2]: 76%; fold IC50 relative to chemical 13 (relative to chemical 13): 25 fold
CCOC(=O)Nc1ccc2c(c1)N(C(=O)CCN1CCCC1)c1ccccc1CC2 [Compound 23]	3180 nM		inhibition at 70 µM: 118%
CCOC(=O)Nc1ccc2c(c1)N(C(=O)CN(CC)CC)c1ccccc1CC2 [Compound 70]		620 nM	% Inhibition (70 μM) [2]: 104.8%
CCN(CC)CC(=O)N1c2ccccc2CCc2ccc(NC(=O)NC(C)C)cc21 [Compound 6, 1-(5-(diethylglycyl)-10,11-dihydro-5H-dibenzo[b,f]azepin-3-yl)-3-isopropylurea]	4930 nM		inhibition at 70 µM [2]: 107%
CCOC(=O)Nc1ccc2c(c1)N(C(=O)Cn1cccc1)c1ccccc1CC2 [Compound 16, ethyl (5-(2-(1H-pyrrol-1-yl)acetyl)-10,11-dihydro-5H-dibenzo[b,f]azepin-3-yl)carbamate]	37 nM		inhibition at 70 µM [2]: 121%; fold increase of CAR inverse agonistic activity (potency) over lead chemical 1 (CINPA1): 19 fold; fold more potent than chemical 13 (relative to chemical 13): 43 fold
CCOC(=O)Nc1ccc2c(c1)N(C(=O)CN(C(C)C)C(C)C)c1ccccc1CC2 [Compound 12, ethyl (5-(diisopropylglycyl)-10,11-dihydro-5H-dibenzo[b,f]azepin-3-yl)carbamate]		3050 nM	inhibition at 70 µM [2]: 110%; fold increase of IC50 (decrease of activity) relative to lead chemical 1 (CINPA1): more than 4 fold
CCOC(=O)Nc1ccc2c(c1)N(C(=O)CN(CC)CC)c1ccccc1CC2 [Compound 1, ethyl (5-(diethylglycyl)-10,11-dihydro-5H-dibenzo[b,f]azepin-3-yl)carbamate]	690 nM	690 nM	inhibition at 70 µM [2]: 116%
